Test results: patent publication US12559495B2 (Agency for Science, Technology and Research, priority 2013, dated 2026)

System: HEK293-STF3A cells
Experiment: STF3A assay (luciferase reporter)
Format: cell-based
Details: Homo sapiens, 24 h, 1 day of treatment
Protocol: HEK293-STF cell line was modified from Human embryonic kidney cell line HEK293 transfected with the STF reporter. HEK293-STF3A cell line was further modified from HEK293-STF cell line to express Wnt3A. This cell line was used to identify compounds that regulate either early or late signalling components of the Wnt pathway. L-Wnt3A (ATCC, #CRL-2647) cell line was used for providing Wnt3A conditioned media. The three cell lines were grown in DMEM (Dulbecco's Modified Eagle Medium) with 10% FBS (fetal bovine serum) incubated in 37° C. with 5% CO2. 2×10^4 HEK293-STF3A cells in 75 μl culture media were seeded in each well of white 96 well plates (Greiner #655098) and incubated overnight at 37° C. 25 μl serially diluted compound was added to the cells to give final concentration of 50 μM to 1.5 nM. After 1 day of treatment, 100 μl of Steady-Glo® Luciferase Assay reagent (#E2520, Promega) was added to each well and incubated for 10 minutes at room temperature. Luminescence was measured using Tecan Safire2® plate reader.

| Structure (SMILES) | IC50 |
| --- | --- |
| CN(C(=O)Cn1cnc2c1c(=O)n(C)c(=O)n2C)c1ccc(-c2ccsc2)cc1 [Compound 17, 2-(1,3-dimethyl-2,6-dioxo-2,3-dihydro-1H-purin-7(6H)-yl)-N-methyl-N-(4-(thiophen-3-yl)phenyl)acetamide] | > 10000 nM |
| Cn1c(=O)c2c(ncn2CC(=O)Nc2ccc(-c3ccsc3)cc2)n(C)c1=O [Compound 18, 2-(1,3-dimethyl-2,6-dioxo-2,3-dihydro-1H-purin-7(6H)-yl)-N-(4-(thiophen-3-yl)phenyl)acetamide] | < 100 nM |
| Cn1c(=O)c2c(ncn2CC(=O)Nc2ccc(-c3ccccc3)cn2)n(C)c1=O [Compound 19, 2-(1,3-dimethyl-2,6-dioxo-2,3-dihydro-1H-purin-7(6H)-yl)-N-(5-phenylpyridin-2-yl)acetamide] | < 100 nM |
| Cn1c(=O)c2c(ncn2CC(=O)Nc2ccc(N3CCN(C(=O)OC(C)(C)C)CC3)cn2)n(C)c1=O [Compound 20] | < 100 nM |
| Cn1c(=O)c2c(ncn2CC(=O)Nc2ccc(N3CCN(Cc4cccc(Cl)c4)CC3)cn2)n(C)c1=O [Compound 21, N-(5-(4-(3-chlorobenzyl)piperazin-1-yl)pyridin-2-yl)-2-(1,3-dimethyl-2,6-dioxo-2,3-dihydro-1H-purin-7(6H)-yl)acetamide] | < 100 nM |
| Cn1c(=O)c2c(ncn2CC(=O)Nc2ccc(N3CCN(C(=O)OC(C)(C)C)CC3)cc2)n(C)c1=O [Compound 22, tert-butyl 4-(4-(2-(1,3-dimethyl-2,6-dioxo-2,3-dihydro-1H-purin-7(6H)-yl)acetamido)phenyl)piperazine-1-carboxylate] | < 100 nM |
| CC(C(=O)Nc1ccc(N2CCN(C(=O)OC(C)(C)C)CC2)cc1)n1cnc2c1c(=O)n(C)c(=O)n2C (stereo not drawn) [Compound 23, tert-butyl 4-(4-(2-(1,3-dimethyl-2,6-dioxo-2,3-dihydro-1H-purin-7(6H)-yl)propanamido)phenyl)piperazine-1-carboxylate] | < 100 nM |
| Cn1c(=O)c2c(ncn2CC(=O)Nc2ccc(-c3ncco3)cc2)n(C)c1=O [Compound 24, 2-(1,3-dimethyl-2,6-dioxo-2,3-dihydro-1H-purin-7(6H)-yl)-N-(4-(oxazol-2-yl)phenyl)acetamide] | < 1000 nM |
| Cn1c(=O)c2c(ncn2CC(=O)Nc2ccc(-c3ccccn3)cc2)n(C)c1=O [Compound 25, 2-(1,3-dimethyl-2,6-dioxo-2,3-dihydro-1H-purin-7(6H)-yl)-N-(4-(pyridin-2-yl)phenyl)acetamide] | < 100 nM |
| Cn1c(=O)c2c(ncn2CC(=O)Nc2ccc(-c3cccnc3)cc2)n(C)c1=O [Compound 26, 2-(1,3-dimethyl-2,6-dioxo-2,3-dihydro-1H-purin-7(6H)-yl)-N-(4-(pyridin-3-yl)phenyl)acetamide] | < 100 nM |
| COc1ccccc1-c1ccc(NC(=O)Cn2cnc3c2c(=O)n(C)c(=O)n3C)cc1 [Compound 27, 2-(1,3-dimethyl-2,6-dioxo-2,3-dihydro-1H-purin-7(6H)-yl)-N-(2′-methoxybiphenyl-4-yl)acetamide] | > 10000 nM |
| Cc1ccccc1-c1ccc(NC(=O)Cn2cnc3c2c(=O)n(C)c(=O)n3C)cc1 [Compound 28, 2-(1,3-dimethyl-2,6-dioxo-2,3-dihydro-1H-purin-7(6H)-yl)-N-(2′-methylbiphenyl-4-yl)acetamide] | > 10000 nM |
| Cc1cccc(-c2ccc(NC(=O)Cn3cnc4c3c(=O)n(C)c(=O)n4C)cc2)c1 [Compound 29, 2-(1,3-dimethyl-2,6-dioxo-2,3-dihydro-1H-purin-7(6H)-yl)-N-(3′-methylbiphenyl-4-yl)acetamide] | < 100 nM |
| Cc1ccc(-c2ccc(NC(=O)Cn3cnc4c3c(=O)n(C)c(=O)n4C)cc2)cc1 [Compound 30, 2-(1,3-dimethyl-2,6-dioxo-2,3-dihydro-1H-purin-7(6H)-yl)-N-(4′-methylbiphenyl-4-yl)acetamide] | < 100 nM |
| Cn1c(=O)c2c(ncn2CC(=O)Nc2ccc(-c3ccc(OC(F)(F)F)cc3)cc2)n(C)c1=O [Compound 31, 2-(1,3-dimethyl-2,6-dioxo-2,3-dihydro-1H-purin-7(6H)-yl)-N-(4′-(trifluoromethoxy)biphenyl-4-yl)acetamide] | < 5000 nM |
| COc1cccc(-c2ccc(NC(=O)Cn3cnc4c3c(=O)n(C)c(=O)n4C)cc2)c1 [Compound 32, 2-(1,3-dimethyl-2,6-dioxo-2,3-dihydro-1H-purin-7(6H)-yl)-N-(3′-methoxybiphenyl-4-yl)acetamide] | < 100 nM |
| Cc1nc(-c2ccc(NC(=O)Cn3cnc4c3c(=O)n(C)c(=O)n4C)cc2)cs1 [Compound 33, 2-(1,3-dimethyl-2,6-dioxo-2,3-dihydro-1H-purin-7(6H)-yl)-N-(4-(2-methylthiazol-4-yl)phenyl)acetamide] | < 100 nM |
| Cn1c(=O)c2c(ncn2CC(=O)Nc2ccc(-c3nccs3)cc2)n(C)c1=O [Compound 34, 2-(1,3-dimethyl-2,6-dioxo-2,3-dihydro-1H-purin-7(6H)-yl)-N-(4-(thiazol-2-yl)phenyl)acetamide] | < 100 nM |
| Cn1c(=O)c2c(ncn2CC(=O)Nc2ccc(-c3ccccc3)nc2)n(C)c1=O [Compound 35, 2-(1,3-dimethyl-2,6-dioxo-2,3-dihydro-1H-purin-7(6H)-yl)-N-(6-phenylpyridin-3-yl)acetamide] | < 100 nM |
| Cn1c(=O)c2c(ncn2CC(=O)Nc2cnc(-c3ccccc3)cn2)n(C)c1=O [Compound 36, 2-(1,3-dimethyl-2,6-dioxo-2,3-dihydro-1H-purin-7(6H)-yl)-N-(5-phenylpyrazin-2-yl)acetamide] | < 100 nM |
| Cn1c(=O)c2c(ncn2CC(=O)Nc2ccc(-c3ccc(F)cc3)cn2)n(C)c1=O [Compound 37, 2-(1,3-dimethyl-2,6-dioxo-2,3-dihydro-1H-purin-7(6H)-yl)-N-(5-(4-fluorophenyl)pyridin-2-yl)acetamide] | < 100 nM |
| COC(=O)c1ccc(-c2ccc(NC(=O)Cn3cnc4c3c(=O)n(C)c(=O)n4C)cc2)cc1 [Compound 38, methyl 4′-(2-(1,3-dimethyl-2,6-dioxo-2,3-dihydro-1H-purin-7(6H)-yl)acetamido)biphenyl-4-carboxylate] | < 100 nM |
| Cn1c(=O)c2c(ncn2CC(=O)Nc2cc(-c3ccccc3)no2)n(C)c1=O [Compound 39, 2-(1,3-dimethyl-2,6-dioxo-2,3-dihydro-1H-purin-7(6H)-yl)-N-(3-phenylisoxazol-5-yl)acetamide] | > 10000 nM |
| Cn1c(=O)c2c(ncn2CC(=O)Nc2ccc(-c3cnco3)cc2)n(C)c1=O [Compound 40, 2-(1,3-dimethyl-2,6-dioxo-2,3-dihydro-1H-purin-7(6H)-yl)-N-(4-(oxazol-5-yl)phenyl)acetamide] | < 1000 nM |
| Cn1c(=O)c2c(ncn2CC(=O)Nc2ccc(-c3nccs3)cn2)n(C)c1=O [Compound 41, 2-(1,3-dimethyl-2,6-dioxo-2,3-dihydro-1H-purin-7(6H)-yl)-N-(5-(thiazol-2-yl)pyridin-2-yl)acetamide] | < 100 nM |
| Cn1c(=O)c2c(ncn2CC(=O)Nc2ccc(N3CCNCC3)cn2)n(C)c1=O [Compound 42, 2-(1,3-dimethyl-2,6-dioxo-2,3-dihydro-1H-purin-7(6H)-yl)-N-(5-(piperazin-1-yl)pyridin-2-yl)acetamide] | > 10000 nM |
| C[C@H]1CNCCN1c1ccc(NC(=O)Cn2cnc3c2c(=O)n(C)c(=O)n3C)cc1 [Compound 43, (S)-2-(1,3-dimethyl-2,6-dioxo-2,3-dihydro-1H-purin-7(6H)-yl)-N-(4-(2-methylpiperazin-1-yl)phenyl)acetamide] | > 10000 nM |
